Results from US10526347B2, “3-(3H-imidazo[4,5-B]pyridin-2-yl)-1H-pyrazolo[3,4-B]pyridine and therapeutic uses thereof” (Samumed, LLC, priority 2014, dated 2020).
pEC50, pIC50: −log10 of the molar value.

What was measured:
[1] = tested on: primary human fibroblasts derived from IPF patients (LL29 cells); assay: Inhibition of the fibrotic process in TGF-β1 treated IPF patient fibroblasts (αSMA staining); assay type: cell-based; conditions: Fibroblast, 96 h, LL29 cells treated with TGF-β1 (20 ng/mL), 4 days, read-out: Inhibition of fibrosis EC50
Excerpt: The above synthesized compounds were screened using primary human fibroblasts (derived from IPF patients) treated with TGF-β1 to determine their ability to inhibit the fibrotic process.
Primary human fibroblasts derived from IPF patients (LL29 cells) [^1Xiaoqiu Liu, et. al., “Fibrotic Lung Fibroblasts Show Blunted Inhibition by cAMP Due to Deficient cAMP Response Element-Binding Protein Phosphorylation”, Journal of Pharmacology and Experimental Therapeutics (2005), 315(2), 678-687; ^2Watts, K. L., et. al., “RhoA signaling modulates cyclin D1 expression in human lung fibroblasts; implications for idiopathic pulmonary fibrosis”, Respiratory Research (2006), 7(1), 88] were obtained from American Type Culture Collection (ATCC) and expanded in F12 medium supplemented with 15% Fetal Bovine Serum and Penicillin/Streptomycin.
Each compound was dissolved in DMSO as a 10 mM stock and used to prepare compound source plates. Serial dilution (1:2, 11-point dose-response curves from 10 μM to 1.87 nM) and compound transfer was performed using the ECHO 550 (Labcyte, Sunnyvale, Calif.) into 384-well clear bottom assay plates (Greiner Bio-One) with appropriate DMSO backfill for a final DMSO concentration of 0.1%. LL29 cells were plated at 1,500 cells/well in 80 μl/well F12 medium supplemented with 1% Fetal Bovine Serum. One hour after addition of the cells, TGF-β1 (Peprotech; 20 ng/mL) was added to the plates to induce fibrosis (ref. 1 and 2 above). Wells treated with TGF-β1 and containing DMSO were used as controls. Cells were incubated at 37° C. and 5% CO2 for 4 days. Following incubation for 4 days, SYTOX green nucleic acid stain (Life Technologies [Thermo Fisher Scientific]) was added to the wells at a final concentration of 1 uM and incubated at room temperature for 30 min. Cells were then fixed using 4% formaldehyde (Electron Microscopy Sciences), washed 3 times with PBS followed by blocking and permeabilization using 3% Bovine Serum Albumin (BSA; Sigma) and 0.3% Triton X-100 (Sigma) in PBS. Cells were then stained with antibody specific to α-smooth muscle actin (αSMA; Abcam) (ref. 1 and 2 above) in 3% Bovine Serum Albumin (BSA; Sigma) and 0.3% Triton X-100 (Sigma) in PBS, and incubated overnight at 4° C. Cells were then washed 3 times with PBS, followed by incubation with Alexa Flor-647 conjugated secondary antibody (Life Technologies [Thermo Fisher Scientific]) and DAPI at room temperature for 1 hour. Cells were then washed 3 times with PBS and plates were sealed for imaging. αSMA staining was imaged by excitation at 630 nm and emission at 665 nm and quantified using the Compartmental Analysis program on the CellInsight CX5 (Thermo Scientific). Dead or apoptotic cells were excluded from analysis based on positive SYTOX green staining. % of total cells positive for αSMA were counted in each well and normalized to the average of 11 wells treated with TGF-β1 on the same plate using Dotmatics' Studies Software. The normalized averages (fold change over untreated) of 3 replicate wells for each compound concentration were used to create dose-responses curves and EC50 values were calculated using non-linear regression curve fit in the Dotmatics' Studies Software. The EC50 values are reported.

[2] = tested on: Wnt activity (SW480 colon carcinoma cells stably expressing the Sp5-Luc reporter gene); assay: Sp5-Luc reporter gene screening assay for Wnt activity; assay type: cell-based; conditions: Homo sapiens
Excerpt: The screening assay for Wnt activity is described as follows. Reporter cell lines can be generated by stably transducing cancer cell lines (e.g., colon cancer) or primary cells (e.g., IEC-6 intestinal cells) with a lentiviral construct that includes a Wnt-responsive promoter driving expression of the firefly luciferase gene.
SW480 colon carcinoma cells were transduced with a lentiviral vector expressing luciferase with a human Sp5 promoter consisting of a sequence of eight TCF/LEF binding sites. SW480 cells stably expressing the Sp5-Luc reporter gene and a hygromycin resistance gene were selected by treatment with 150 μg/ml of hygromycin for 7 days. These stably transduced SW480 cells were expanded in cell culture and used for all further screening activities. For Sp5-Luc reporter gene assays, the cells were plated at 10,000 cells/well in 96-well plates with growth medium containing 10% fetal calf serum and incubated overnight at 37° C. and 5% CO2. Each compound was dissolved in DMSO as a 10 mM stock in standard j-vials and used to prepare compound source plates in dose-response format with 3-fold serial dilutions and a 10 mM top concentration. Compound transfer from serially diluted source plates to assay plates containing the cells was accomplished using a pintool (Multimek 96, Beckman equipped with V&P Scientific FP1S50H pins) based liquid handling protocol. This protocol used a slotted pin to transfer 50 nl of compound from a source plate well to an assay plate well containing 50 μl of cells in growth medium. […] Control wells received 50 nl of DMSO treatment for normalization and calculating IC50 values. The treated cells were incubated at 37° C. and 5% CO2 for an additional forty-two hours. Following incubation, the growth medium was removed and 50 μl of BrightGlo luminescence reagent (Promega) was added to each well of the 96-well assay plates. The plates were placed on an orbital shaker for 5 min and then luminescence was quantified on the Victor3 (Perkin Elmer) plate reader. Readings were normalized to DMSO only treated cells, and normalized activities were utilized for IC50 calculations using the dose-response log (inhibitor) vs. response -variable slope (four parameters) nonlinear regression feature available in GraphPad Prism 5.0 or 6.0.

Row | Structure (SMILES) | pIC50 [2] | pEC50 [1]
1 | Fc1cccc(-c2ccnc3[nH]c(-c4n[nH]c5ncc(-c6ccccn6)cc45)nc23)c1 [Compound 925, 3-(7-(3-Fluorophenyl)-3H-imidazo[4,5-b]pyridin-2-yl)-5-(pyridin-2-yl)-1H-pyrazolo[3,4-b]pyridine] | < 5.00 | ≤ 5.00
2 | O=C(Nc1cncc(-c2cnc3[nH]nc(-c4nc5c(N6CCCCC6)ccnc5[nH]4)c3c2)c1)C1CC1 [Compound 151, N-(5-(3-(7-(Piperidin-1-yl)-3H-imidazo[4,5-b]pyridin-2-yl)-1H-pyrazolo[3,4-b]pyridin-5-yl)pyridin-3-yl)cyclopropanecarboxamide] | 6.61 | 6.38
3 | Cc1cn(-c2ccnc3[nH]c(-c4n[nH]c5ncc(-c6cncc(NC(=O)C(C)(C)C)c6)cc45)nc23)cn1 [Compound 165, N-(5-(3-(7-(4-Methyl-1H-imidazol-1-yl)-3H-imidazo[4,5-b]pyridin-2-yl)-1H-pyrazolo[3,4-b]pyridin-5-yl)pyridin-3-yl)pivalamide] | < 5.00 | ≤ 5.00
4 | FC1(F)CCN(Cc2cncc(-c3cnc4[nH]nc(-c5nc6c(N7CCCCC7)ccnc6[nH]5)c4c3)c2)C1 [Compound 157, 5-(5-((3,3-Difluoropyrrolidin-1-yl)methyl)pyridin-3-yl)-3-(7-(piperidin-1-yl)-3H-imidazo[4,5-b]pyridin-2-yl)-1H-pyrazolo[3,4-b]pyridine] | 5.38 | ≥ 8.05
5 | c1ccc(-c2ccnc3[nH]c(-c4n[nH]c5ncc(-c6cncc(CNCC7CCCC7)c6)cc45)nc23)nc1 [Compound 130, 1-Cyclopentyl-N-((5-(3-(7-(pyridin-2-yl)-3H-imidazo[4,5-b]pyridin-2-yl)-1H-pyrazolo[3,4-b]pyridin-5-yl)pyridin-3-yl)methyl)methanamine] | 6.20 | ≥ 8.05

Molecules with a higher pIC50 [2], results first:

Row | pIC50 [2] | Structure (SMILES) | pEC50 [1]
6 | 7.67 | Cc1ccncc1-c1cnc2[nH]nc(-c3nc4c(-c5ccsc5)ccnc4[nH]3)c2c1 [Compound 237, 5-(4-Methylpyridin-3-yl)-3-(7-(thiophen-3-yl)-3H-imidazo[4,5-b]pyridin-2-yl)-1H-pyrazolo[3,4-b]pyridine] | 6.55
7 | 6.89 | CC(C)Nc1cncc(-c2cnc3[nH]nc(-c4nc5c(-c6cc(F)cc(NCCN(C)C)c6)ccnc5[nH]4)c3c2)c1 [Compound 426, N^1-(3-Fluoro-5-(2-(5-(5-(isopropylamino)pyridin-3-yl)-1H-pyrazolo [3,4-b]pyridin-3-yl)-3H-imidazo[4,5-b]pyridin-7-yl)phenyl)-N^2,N^2-dimethylethane-1,2-diamine] | 6.54
8 | 6.84 | Fc1ccc(-c2ccnc3[nH]c(-c4n[nH]c5ncc(-c6cncc(CN7CCCC7)c6)cc45)nc23)cc1 [Compound 33, 3-(7-(4-Fluorophenyl)-3H-imidazo[4,5-b]pyridin-2-yl)-5-(5-(pyrrolidin-1-ylmethyl)pyridin-3-yl)-1H-pyrazolo[3,4-b]pyridine] | 5.11
9 | 6.67 | c1cncc(-c2cnc3[nH]nc(-c4nc5cccnc5[nH]4)c3c2)c1 [Compound 212, 3-(3H-Imidazo[4,5-b]pyridin-2-yl)-5-(pyridin-3-yl)-1H-pyrazolo[3,4-b]pyridine] | 6.30
10 | 8.11 | O=C(Nc1cncc(-c2cnc3[nH]nc(-c4nc5c(-c6cccs6)ccnc5[nH]4)c3c2)c1)C1CC1 [Compound 303, N-(5-(3-(7-(Thiophen-2-yl)-3H-imidazo[4,5-b]pyridin-2-yl)-1H-pyrazolo[3,4-b]pyridin-5-yl)pyridin-3-yl)cyclopropanecarboxamide] | ≤ 5.00
11 | 7.38 | O=C(Nc1cncc(-c2cnc3[nH]nc(-c4nc5c(-c6ccccc6F)ccnc5[nH]4)c3c2)c1)C1CCCC1 [Compound 61, N-(5-(3-(7-(2-Fluorophenyl)-3H-imidazo[4,5-b]pyridin-2-yl)-1H-pyrazolo[3,4-b]pyridin-5-yl)pyridin-3-yl)cyclopentanecarboxamide] | 6.23
